How the values were obtained:
Experiment in all cases: relative viability (nuclei count vs DMSO), 5 days (fraction); higher = more cells survive
KIN001-266 = compound: CCN1CCC(CC1)N2C=C(N=N2)CNC3=CC4=C(C(=CN=C4C(=C3)Cl)C#N)NC5=CC(=C(C=C5)F)Cl [KIN001-266]
Procedure, shortened: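 In 1536-well plates, lung cancer cell lines rested overnight at 37 °C before five library-drug doses (not always all listed), √10 apart, were pinned onto vehicle-anchored plates. Nuclei were counted with MetaXpress from 4× Hoechst images taken after 5 days without medium change. Viability compares treated-well with vehicle-well nuclei as a median over plates, and plates needed control CV below 25% plus at least one doubling to pass.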

KIN001-266 + Palbociclib = compound: CCN1CCC(CC1)N2C=C(N=N2)CNC3=CC4=C(C(=CN=C4C(=C3)Cl)C#N)NC5=CC(=C(C=C5)F)Cl [KIN001-266] + CC(=O)c1c(C)c2cnc(Nc3ccc(N4CCNCC4)cn3)nc2n(C2CCCC2)c1=O [Palbociclib] (partner 0.5 µM)
Procedure, shortened: (§1)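 Medians of duplicate plates are given as relative viability. That measure is the nuclei count in treated wells divided by the count in vehicle wells. Counts were taken on 4× images of lung cancer cell lines in 1536-well plates, 5 days after pin-tool dosing the day after seeding with one drug alone or a fixed anchor-drug dose plus five library-drug doses (not always all listed) in √10 steps.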

KIN001-266 + Foretinib = compound: CCN1CCC(CC1)N2C=C(N=N2)CNC3=CC4=C(C(=CN=C4C(=C3)Cl)C#N)NC5=CC(=C(C=C5)F)Cl [KIN001-266] + COc1cc2c(Oc3ccc(NC(=O)C4(C(=O)Nc5ccc(F)cc5)CC4)cc3F)ccnc2cc1OCCCN1CCOCC1 [Foretinib] (partner 0.25 µM)
Procedure, shortened: as §1

KIN001-266 + OSI-027 = compound: CCN1CCC(CC1)N2C=C(N=N2)CNC3=CC4=C(C(=CN=C4C(=C3)Cl)C#N)NC5=CC(=C(C=C5)F)Cl [KIN001-266] + COc1cccc2cc(-c3nc([C@H]4CC[C@H](C(=O)O)CC4)n4ncnc(N)c34)[nH]c12 [OSI-027] (partner 0.5 µM)
Procedure, shortened: as §1

Cell Line	relative viability (KIN001-266; 0.08 µM)	relative viability (KIN001-266; 0.253 µM)	relative viability (KIN001-266; 0.8 µM)	relative viability (KIN001-266; 2.53 µM)	relative viability (KIN001-266; 8 µM)	relative viability (KIN001-266 + Palbociclib; first compound 0.08 µM)	relative viability (KIN001-266 + Palbociclib; first compound 0.253 µM)	relative viability (KIN001-266 + Palbociclib; first compound 0.8 µM)	relative viability (KIN001-266 + Palbociclib; first compound 2.53 µM)	relative viability (KIN001-266 + Palbociclib; first compound 8 µM)	relative viability (KIN001-266 + Foretinib; first compound 0.08 µM)	relative viability (KIN001-266 + Foretinib; first compound 0.253 µM)	relative viability (KIN001-266 + Foretinib; first compound 2.53 µM)	relative viability (KIN001-266 + Foretinib; first compound 8 µM)	relative viability (KIN001-266 + OSI-027; first compound 0.08 µM)	relative viability (KIN001-266 + OSI-027; first compound 0.253 µM)	relative viability (KIN001-266 + OSI-027; first compound 2.53 µM)	relative viability (KIN001-266 + OSI-027; first compound 8 µM)	relative viability (KIN001-266 + Foretinib; first compound 0.8 µM)	relative viability (KIN001-266 + OSI-027; first compound 0.8 µM)
HCC-78	0.964	0.998	0.913	0.99	0.956	0.506	0.518	0.476	0.431	0.415	0.529	0.588	0.575	0.527	0.34	0.39	0.308	0.37		
HCC-366	1.02	1.01	0.992	1.01	0.969	0.425	0.371	0.302	0.407	0.403	0.961	0.955	0.905	0.851	1.14	0.977	0.826	0.412	0.916	0.936
HCC-827	1.03	1.05	0.715	1.08	0.98	0.443	0.492	0.374	0.471	0.467	1.04	1.09	0.907	0.809	0.682	0.787	0.734	0.661	0.944	0.495
HOP-62	1.01	1.05	1.02	1.02	0.995	0.473	0.472	0.457	0.479	0.485	0.96	1.11	1.13	1.13	0.888	0.893	0.765	0.797	1.15	0.877
IA-LM	0.95	0.956	0.888	1	0.931						1.03	1.17	1.19	0.891					1.41	
LC-2-ad	1.05	0.997	0.947	1.04	0.962	0.535	0.527	0.484	0.499	0.478	0.964	1	0.972	0.787	0.844	0.94	0.776	0.77	0.904	0.825
LCLC-97TM1	0.942	0.853	0.917	0.866	0.906	0.201	0.233	0.216		0.235	0.983	0.914	0.888	0.909	0.636	0.69	0.557	0.532	0.903	0.45
LCLC-103H	1.08	1.04	1.08	1.06	1.02	0.453	0.492	0.466	0.456	0.433	0.837	0.716	0.772	0.726	0.49	0.469	0.484	0.469	0.987	0.452
LK-2	1.14	0.885	1.2	0.969	1.12	0.794	0.691	0.797	0.589	0.67	1.12	1.31	1.03	1.28	0.215	0.187	0.168	0.222	1.2	0.199
LOU-NH91	1.07	1.04	0.737	0.85	0.845	0.526	0.544	0.509	0.525	0.53	0.943	0.924	0.804	0.724	0.753	0.76	0.608	0.546	0.623	0.434
LU99A	0.985	0.952	0.958	0.847	0.849	0.441	0.413	0.358	0.373	0.364	0.84	0.842	0.735	0.535	0.285	0.303	0.269	0.29	0.754	0.301
LXF-289	0.949	0.984	1	1	1.06	0.589	0.618	0.596	0.606	0.629	0.936	0.945	0.997	1.07	0.788	0.843	0.788	0.678	0.963	0.775
NCI-H596	1.09	0.938	0.878	0.987	0.866						0.963	0.986	0.775	0.737	0.858	0.635	0.638	0.529	0.901	0.616
NCI-H1299	0.987	0.996	1	0.928	0.869						1.06	1.1	0.994	0.964					1.05	
NCI-H1563	0.958	1	1.02	1.04	0.972						0.925	0.862	0.985	0.904	0.794	0.745	0.758	0.756	0.941	0.875
NCI-H1648	0.853	0.859	0.893	0.823	0.966	0.298	0.277	0.277	0.281	0.261					0.28	0.256	0.257	0.273		0.273
NCI-H1703	1.06	0.873	0.954	0.789	0.806						0.367		0.359	0.366					0.37	
NCI-H1792	0.987	0.919	0.856	0.908	1.01	0.675	0.719	0.637	0.681	0.638					0.772	0.711	0.732	0.691		0.729
